# Data: patent US20240336574A1 (LATIGO BIOTHERAPEUTICS, INC., priority 2021, published 2024)
# Where two headings read alike, the source gives them in different places.
# Biological target: T1, recombinant human NaV1.8 stably transfected HEK cells (Homo sapiens, UniProt Q9Y5Y9)
# T1 construct: expressed in transfected cells; host or cells: HEK cells, stably transfected
# Assay: Compound profiling on NaV1.8, human NaV1.8 cell line, SyncroPatch384PE automated patch clamp assay (Example 102, first set of compounds, Table 16)
# Type: cell-based
# Settings: human NaV1.8 HEK cells, Table 16 (first set of compounds)
# How it was run: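 IC50s come from two read-outs: resting-state block (P1, 10 mV step from −120 mV) and inactivated-state block (P2, after 10 s at −40 mV), scaled between DMSO and 250 μM tetracaine. Compounds (20–0.001 μM final, 1:3 steps) were applied for 5 min, 15 s sweeps. Cells kept at 30 °C the day before.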
# [1] = inactivated state block (P2 measurement), read-out: P2IC50
# [2] = resting state block (P1 measurement), read-out: P1IC50
# T1 sequence (Q9Y5Y9 whole entry): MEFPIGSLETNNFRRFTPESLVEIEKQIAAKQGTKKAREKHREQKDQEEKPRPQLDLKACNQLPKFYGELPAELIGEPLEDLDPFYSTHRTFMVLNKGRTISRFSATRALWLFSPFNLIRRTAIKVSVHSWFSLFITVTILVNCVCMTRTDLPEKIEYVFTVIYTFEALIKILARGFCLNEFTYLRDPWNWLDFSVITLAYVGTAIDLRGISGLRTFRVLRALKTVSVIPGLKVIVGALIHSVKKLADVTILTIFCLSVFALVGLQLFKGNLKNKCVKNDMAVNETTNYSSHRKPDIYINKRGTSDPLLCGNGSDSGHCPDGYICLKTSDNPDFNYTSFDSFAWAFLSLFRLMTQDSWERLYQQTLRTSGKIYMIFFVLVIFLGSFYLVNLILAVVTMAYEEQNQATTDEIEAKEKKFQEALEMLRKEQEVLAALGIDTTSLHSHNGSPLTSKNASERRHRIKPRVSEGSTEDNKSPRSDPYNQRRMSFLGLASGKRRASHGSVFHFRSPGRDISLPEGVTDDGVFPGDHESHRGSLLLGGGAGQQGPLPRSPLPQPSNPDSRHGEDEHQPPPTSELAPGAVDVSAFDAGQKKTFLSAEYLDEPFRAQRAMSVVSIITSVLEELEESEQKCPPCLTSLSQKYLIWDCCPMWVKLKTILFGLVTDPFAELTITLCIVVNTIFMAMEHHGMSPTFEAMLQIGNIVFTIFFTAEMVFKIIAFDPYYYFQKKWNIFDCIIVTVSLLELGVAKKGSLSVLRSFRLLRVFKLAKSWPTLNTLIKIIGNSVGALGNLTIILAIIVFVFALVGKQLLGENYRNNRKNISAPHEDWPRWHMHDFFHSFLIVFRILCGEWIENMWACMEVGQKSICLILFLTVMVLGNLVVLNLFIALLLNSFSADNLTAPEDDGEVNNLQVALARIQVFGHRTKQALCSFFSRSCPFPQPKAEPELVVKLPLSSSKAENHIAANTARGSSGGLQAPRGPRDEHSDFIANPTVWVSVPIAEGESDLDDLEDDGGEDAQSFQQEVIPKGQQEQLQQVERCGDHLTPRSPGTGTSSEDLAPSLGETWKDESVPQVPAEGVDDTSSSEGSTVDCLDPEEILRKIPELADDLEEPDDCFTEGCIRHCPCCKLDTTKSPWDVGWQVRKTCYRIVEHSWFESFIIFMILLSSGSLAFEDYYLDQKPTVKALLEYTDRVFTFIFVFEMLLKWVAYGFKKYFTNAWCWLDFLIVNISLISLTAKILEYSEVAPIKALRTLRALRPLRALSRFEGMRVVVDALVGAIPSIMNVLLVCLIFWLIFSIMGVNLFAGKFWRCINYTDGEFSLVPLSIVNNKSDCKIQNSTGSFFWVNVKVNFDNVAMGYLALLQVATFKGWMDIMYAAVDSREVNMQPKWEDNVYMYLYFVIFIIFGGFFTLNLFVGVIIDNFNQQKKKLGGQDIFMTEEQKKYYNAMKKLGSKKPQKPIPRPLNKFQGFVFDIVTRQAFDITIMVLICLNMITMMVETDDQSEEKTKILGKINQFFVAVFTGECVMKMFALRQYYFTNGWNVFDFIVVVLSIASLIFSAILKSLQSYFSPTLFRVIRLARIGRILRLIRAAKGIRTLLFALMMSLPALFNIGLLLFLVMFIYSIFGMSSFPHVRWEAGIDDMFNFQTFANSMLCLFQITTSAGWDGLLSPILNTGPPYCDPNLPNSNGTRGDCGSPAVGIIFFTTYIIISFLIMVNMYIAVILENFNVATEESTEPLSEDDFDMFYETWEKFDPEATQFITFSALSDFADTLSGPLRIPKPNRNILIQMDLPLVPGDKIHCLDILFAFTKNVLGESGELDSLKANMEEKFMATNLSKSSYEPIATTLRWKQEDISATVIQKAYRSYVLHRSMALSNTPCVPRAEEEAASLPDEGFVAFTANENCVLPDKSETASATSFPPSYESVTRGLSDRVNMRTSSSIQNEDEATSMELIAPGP
Compound,IC50 [1],IC50 [2]
"Cc1c(C(F)(F)F)nnc(Oc2ccc(OC(C)C)c(F)c2F)c1C(=O)Nc1cccc(S(C)(=N)=O)c1 (single isomer, unassigned) [Compound 1502, 3-(2,3-difluoro-4-isopropoxyphenoxy)-5-methyl-N-(3-(S-methylsulfonimidoyl)phenyl)-6-(trifluoromethyl)pyridazine-4-carboxamide]",≤ 20 nM,≤ 20 nM
"Cc1c(Oc2nnc(C(F)(F)F)c(C)c2C(=O)Nc2cccc(S(C)(=N)=O)c2)ccc(OC(F)(F)F)c1F (stereo not shown) [Compound 1515, 3-[3-fluoro-2-methyl-4-(trifluoromethoxy)phenoxy]-N-{3-[imino(methyl)oxo-λ^6-sulfanyl]phenyl}-5-methyl-6-(trifluoromethyl)pyridazine-4-carboxamide]",≤ 20 nM,≤ 20 nM
COc1nc(C)c(Oc2ncc(C(F)(F)F)cc2C(=O)Nc2cccc(S(C)(=N)=O)c2)cc1F (stereo not shown) [Compound 1639],200 to 500 nM,200 to 500 nM
"Cc1cc(F)ccc1Oc1nncc(C)c1C(=O)Nc1cccc(S(C)(=N)=O)c1 (stereo not shown) [Compound 1553, 3-(4-fluoro-2-methyl-phenoxy)-5-methyl-N-[3-(methylsulfonimidoyl)phenyl]pyridazine-4-carboxamide]",200 to 500 nM,200 to 500 nM
"Cc1c(Oc2ncc(C(F)(F)F)cc2C(=O)Nc2cccc(S(C)(=N)=O)c2)ccc(OC(F)(F)F)c1F (single isomer, unassigned) [Compound 1715]",,≤ 20 nM
COc1c(Oc2nccc(C(F)(F)F)c2C(=O)Nc2cccc(C(N)=O)c2)ccc(F)c1F [Compound 1652],20 to 40 nM,20 to 40 nM
"COc1c(Oc2nnc(C(F)(F)F)c(C)c2C(=O)Nc2cccc(S(C)(=O)=O)c2)ccc(Cl)c1F [Compound 1552, 3-(4-chloro-3-fluoro-2-methoxy-phenoxy)-5-methyl-N-(3-methylsulfonylphenyl)-6-(trifluoromethyl)pyridazine-4-carboxamide]",≤ 20 nM,≤ 20 nM
Cc1cc(Br)ccc1Oc1nnc(C(F)(F)F)c(C)c1C(=O)Nc1ccc(C(N)=O)cc1 [Compound 1402],20 to 40 nM,20 to 40 nM
COc1cc(C#N)ccc1Oc1ncc(C(F)(F)F)cc1C(=O)Nc1ccc[n+]([O-])c1 [Compound 1702],40 to 200 nM,40 to 200 nM
CC(C)(O)c1ccc(Oc2ncc(C(F)(F)F)cc2C(=O)Nc2cccc(S(C)(=O)=O)c2)c(F)c1 [Compound 1664],200 to 500 nM,200 to 500 nM
"COc1cc(C#N)ccc1Oc1nnc(C(F)(F)F)c(C)c1C(=O)Nc1cccc(C(=O)NC2CCCC2C#N)c1 (stereo not shown) [Compound 1445, N-[3-[(2-cyanocyclopentyl)carbamoyl]phenyl]-3-(4-cyano-2-methoxy-phenoxy)-5-methyl-6-(trifluoromethyl)pyridazine-4-carboxamide]",200 to 500 nM,200 to 500 nM
"COc1cc(C#N)ccc1Oc1nnc(C(F)(F)F)c(C)c1C(=O)Nc1cccc(C(=O)NC2CCCC2C(N)=O)c1 (stereo not shown) [Compound 1444, N-[3-[(2-carbamoylcyclopentyl)carbamoyl]phenyl]-3-(4-cyano-2-methoxy-phenoxy)-5-methyl-6-(trifluoromethyl)pyridazine-4-carboxamide]",200 to 500 nM,200 to 500 nM
"COc1cc(C#N)ccc1Oc1nnc(C(F)(F)F)c(C)c1C(=O)Nc1cccc(C(=O)NCC2(F)CC2)c1 [Compound 1440, 3-(4-cyano-2-methoxy-phenoxy)-N-[3-[(1-fluorocyclopropyl)methylcarbamoyl]phenyl]-5-methyl-6-(trifluoromethyl)pyridazine-4-carboxamide]",200 to 500 nM,200 to 500 nM
"COc1cc(C#N)ccc1Oc1nnc(-c2ccn(C)n2)c(C)c1C(=O)Nc1cccc(S(C)(=N)=O)c1 (stereo not shown) [Compound 1448, 3-(4-cyano-2-methoxy-phenoxy)-5-methyl-6-(1-methylpyrazol-3-yl)-N-[3-(methylsulfonimidoyl)phenyl]pyridazine-4-carboxamide]",200 to 500 nM,200 to 500 nM
CC(C)Oc1ccc(Oc2ncc(C(F)(F)F)cc2C(=O)Nc2cccc(C(N)=O)c2)c(F)c1 [Compound 1708],200 to 500 nM,200 to 500 nM
COc1cc(C#N)ccc1Oc1nnc(C(F)(F)F)c(C)c1C(=O)Nc1cccc(S(N)(=O)=O)c1 [Compound 1418],≤ 20 nM,≤ 20 nM
"COc1ccc(Oc2nnc(C(F)(F)F)c(C)c2C(=O)Nc2cccc(S(C)(=N)=O)c2)c(C)c1F (stereo not shown) [Compound 1504, 3-(3-fluoro-4-methoxy-2-methylphenoxy)-N-{3-[imino(methyl)oxo-λ^6-sulfanyl]phenyl}-5-methyl-6-(trifluoromethyl)pyridazine-4-carboxamide]",≤ 20 nM,≤ 20 nM
"COc1cc(C#N)ccc1Oc1ncc(C(F)(F)F)cc1C(=O)Nc1cccc(S(N)(=O)=O)c1 [Compound 1561, 2-(4-cyano-2-methoxyphenoxy)-N-(3-sulfamoylphenyl)-5-(trifluoromethyl)pyridine-3-carboxamide]",≤ 20 nM,≤ 20 nM
COc1cc(C#N)ccc1Oc1nnc(C(F)(F)F)c(C)c1C(=O)Nc1cccc(S(C)(=O)=O)c1 [Compound 4],≤ 20 nM,≤ 20 nM
COc1ncc(C(N)=O)cc1Oc1ncc(C(F)(F)F)cc1C(=O)Nc1cccc(S(C)(=N)=O)c1 (stereo not shown) [Compound 1622],200 to 500 nM,200 to 500 nM

Compound,IC50 [1],IC50 [2]
"Cc1c(C(F)(F)F)nnc(Oc2ccc(OC(F)(F)F)cc2F)c1C(=O)Nc1cccc(S(C)(=N)=O)c1 (stereo not shown) [Compound 1495, 3-[2-fluoro-4-(trifluoromethoxy)phenoxy]-5-methyl-N-[3-(methylsulfonimidoyl)phenyl]-6-(trifluoromethyl)pyridazine-4-carboxamide]",≤ 20 nM,≤ 20 nM
"COc1cc(C#N)ccc1Oc1ncc(C2CCOCC2)cc1C(=O)Nc1cccc(S(C)(=N)=O)c1 (stereo not shown) [Compound 1727, 2-(4-cyano-2-methoxy-phenoxy)-N-[3-(methylsulfonimidoyl)phenyl]-5-tetrahydropyran-4-yl-pyridine-3-carboxamide]",200 to 500 nM,200 to 500 nM
Cc1nn(C)c(C)c1Oc1ncc(C(F)(F)F)cc1C(=O)Nc1cccc(S(C)(=O)=O)c1 [Compound 1611],200 to 500 nM,200 to 500 nM
Cc1ccc(Oc2nnc(C(F)(F)F)c(C)c2C(=O)Nc2cccc(S(C)(=O)=O)c2)c(C)n1 [Compound 1420],200 to 500 nM,200 to 500 nM
CC(C)Oc1ccc(Oc2ncc(C(F)(F)F)cc2C(=O)Nc2ccc(-c3ncc[nH]3)cc2)c(F)c1F [Compound 1649],200 to 500 nM,200 to 500 nM
CC(C#N)Oc1cc(F)c(Oc2ncc(C(F)(F)F)cc2C(=O)Nc2ccc(C(N)=O)cc2)cc1F (stereo not shown) [Compound 1688],200 to 500 nM,200 to 500 nM
CCOC(=O)c1cc(NC(=O)c2c(Oc3ccc(F)cc3C)nnc(C(F)(F)F)c2C)cc(S(C)(=O)=O)c1 [Compound 1429],200 to 500 nM,200 to 500 nM
"CSc1cccc(NC(=O)c2c(Oc3ccc(C#N)cc3C)nnc(C(F)(F)F)c2C)c1 [Compound 14, 3-(4-Cyano-2-methylphenoxy)-5-methyl-N-[3-(methylsulfanyl)phenyl]-6-(trifluoromethyl)pyridazine-4-carboxamide]",200 to 500 nM,200 to 500 nM
"COc1cc(C#N)ccc1Oc1nnc(C(F)(F)F)c(C)c1C(=O)Nc1cccc(C(=O)N2CC(O)C2)c1 [Compound 1437, 3-(4-cyano-2-methoxy-phenoxy)-N-[3-(3-hydroxyazetidine-1-carbonyl)phenyl]-5-methyl-6-(trifluoromethyl)pyridazine-4-carboxamide]",40 to 200 nM,40 to 200 nM
COc1ccc(C#N)cc1Oc1ncc(C(F)(F)F)cc1C(=O)Nc1cccc(S(C)(=N)=O)c1 (stereo not shown) [Compound 1620],200 to 500 nM,200 to 500 nM
Cc1cc(F)ccc1Oc1nnc(C(F)(F)F)c(C)c1C(=O)Nc1cc(C(N)=O)cc(S(C)(=O)=O)c1 [Compound 1407],200 to 500 nM,200 to 500 nM
CS(=O)(=O)c1cccc(NC(=O)c2cc(C(F)(F)F)cnc2OCC23CC(F)(C2)C3)c1 [Compound 1629],40 to 200 nM,40 to 200 nM
CS(=N)(=O)c1cccc(NC(=O)c2cc(C(F)(F)F)cnc2OCC23CC(C#N)(C2)C3)c1 (stereo not shown) [Compound 1631],200 to 500 nM,200 to 500 nM
COc1cc(F)ccc1Oc1nnc(C(F)(F)F)c(C)c1C(=O)Nc1ccc(C(N)=O)cc1 [Compound 1415],≤ 20 nM,≤ 20 nM
COc1nc(C)ccc1Oc1ncc(C(F)(F)F)cc1C(=O)Nc1cccc(S(C)(=O)=O)c1 [Compound 1608],≤ 20 nM,≤ 20 nM
CS(=O)(=O)c1cccc(NC(=O)c2cc(C(F)(F)F)cnc2Oc2cccc(OC(F)(F)F)c2)c1 [Compound 1657],200 to 500 nM,200 to 500 nM
CS(=O)(=O)c1cccc(NC(=O)c2cc(C(F)(F)F)cnc2OC2CCOC2)c1 (stereo not shown) [Compound 1662],200 to 500 nM,200 to 500 nM
Cc1c(C(F)(F)F)nnc(Oc2ccc(OC(C)C)c(F)c2F)c1C(=O)Nc1ccnnc1 [Compound 1412],≤ 20 nM,≤ 20 nM
"Cc1cc(F)ccc1Oc1ncc(Br)c(C)c1C(=O)Nc1cccc([S@@](C)(=N)=O)c1 [Compound 1728, 5-bromo-2-(4-fluoro-2-methylphenoxy)-N-{3-[(S)-imino(methyl)oxo-λ^6-sulfanyl]phenyl}-4-methylpyridine-3-carboxamide]",≤ 20 nM,≤ 20 nM
"CNCC(=O)N=[S@](C)(=O)c1cccc(NC(=O)c2cc(C(F)(F)F)cnc2Oc2ccc(F)cc2C)c1 [Compound 1720, (R)-2-(4-fluoro-2-methylphenoxy)-N-(3-(S-methyl-N-(methylglycyl)sulfonimidoyl)phenyl)-5-(trifluoromethyl)nicotinamide]",≤ 20 nM,≤ 20 nM
